In PMC11922053 (Science Advances, 2025):
Where a SMILES comes first, the peptide text is derived from it. Bridges are numbered along the chain shown (N, C = ends). [ ]: non-standard residue; d: D form. The star is where a group is joined. Biotin = O=C1N[C@H]2[C@H](CS[C@H]2CCCCC(=O)*)N1; 2Nal = N[C@@H](Cc1ccc2ccccc2c1)C(=O)O; Gly(cPent) = N[C@H](C(=O)O)C1CCCC1; Hyp = O=C(O)[C@@H]1C[C@@H](O)CN1; Pen = CC(C)(S)[C@H](N)C(=O)O; Api = NC1(C(=O)O)CCNCC1; Ahx = NCCCCCC(=O)O

Biological target: chymotrypsin (Bos taurus, UniProt P00766)
Assay: Protease stability assay with chymotrypsin
Type: in vitro ADME
Conditions: NCBP-4 versus CBP; 50:1 by mass, up to 30 min, LC-MS

## CC1(C)SSC[C@H](NC(=O)[C@H](Cc2ccccc2)NC(=O)[C@@H](NC(=O)[C@H](Cc2ccccc2)NC(=O)C2(NC(=O)[C@H](Cc3ccc4ccccc4c3)NC(=O)[C@H](CCCCN)NC(=O)CCCCCNC(=O)[C@@H](N)CCCCNC(=O)CCCC[C@@H]3SC[C@@H]4NC(=O)N[C@@H]43)CCNCC2)C2CCCC2)C(=O)N2C[C@H](O)C[C@H]2C(=O)N[C@@H](Cc2ccccc2)C(=O)N[C@@H](Cc2ccc(O)cc2)C(=O)N[C@@H](Cc2ccc(O)cc2)C(=O)N[C@@H](CCCCN)C(=O)N2C[C@H](O)C[C@H]2C(=O)N[C@@H]1C(=O)N[C@@H](CCCCN)C(N)=O [NCBP-4] (H-K(Biotin)[Ahx]K[2Nal][Api]F[Gly(cPent)]FC[Hyp]FYYK[Hyp][Pen]K-NH2; disulfide 9-16; N-terminus assumed)
  fold increase in half-life with chymotrypsin relative to CBP: 40 fold
